PubChem BioAssay (NCI)
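Following 48 hours of exposure in 96-well plates, responses at five concentrations were used to interpolate endpoints linearly. GI50 marks 50% less growth. TGI marks complete inhibition of growth.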

Assays:
Experiment in all cases: NCI-60 cell line screen, 48 h
MALME-3M melanoma = tested on: MALME-3M melanoma
A498 renal = tested on: A498 renal
PC-3 prostate = tested on: PC-3 prostate
KM20L2 colon = tested on: KM20L2 colon
DMS 114 small cell lung = tested on: DMS 114 small cell lung
DLD-1 colon = tested on: DLD-1 colon
M19-MEL melanoma = tested on: M19-MEL melanoma
DMS 273 small cell lung = tested on: DMS 273 small cell lung
LXFL 529 NSCLC = tested on: LXFL 529 NSCLC
786-0 renal = tested on: 786-0 renal
T-47D breast = tested on: T-47D breast
RXF-631 renal = tested on: RXF-631 renal
XF 498 CNS = tested on: XF 498 CNS
SNB-78 CNS = tested on: SNB-78 CNS
HOP-18 NSCLC = tested on: HOP-18 NSCLC

| Compound | TGI (MALME-3M melanoma) | TGI (A498 renal) | TGI (PC-3 prostate) | TGI (786-0 renal) | TGI (T-47D breast) | other results |
| --- | --- | --- | --- | --- | --- | --- |
| C#C[C@]1(O)[C@@H](CO)O[C@@H](n2ccc(N)nc2=O)[C@@H]1O | 0.925 µM | 0.54 µM | 0.762 µM |  |  |  |
| CN1C(=O)CN2C(Cl)(Cl)C2(c2ccccc2)c2cc(Cl)ccc21 (stereo not drawn) | > 100 µM |  |  |  |  | TGI (KM20L2 colon): > 100 µM; TGI (DMS 114 small cell lung): > 100 µM; TGI (DLD-1 colon): > 100 µM; TGI (M19-MEL melanoma): > 100 µM; TGI (DMS 273 small cell lung): > 100 µM; TGI (LXFL 529 NSCLC): > 100 µM |
| Cc1cc(C)c(NC(=O)/C=C/c2ccccc2)c(C)c1 |  |  | > 100 µM |  |  |  |
| CC(=O)N=c1ccc2nc(N)nn(O)c-2c1 |  | > 100 µM | > 100 µM | > 100 µM | > 100 µM |  |
| COc1cc2c(cc1O)Cc1c-2[n+](C)cc2cc(OC)c(OC)cc12 | > 100 µM | > 100 µM | > 100 µM | > 44.7 µM | > 100 µM |  |
| COc1cc(/C=C/C(=O)c2ccc(F)cc2)ccc1OCCCCCOc1cc2c(cc1OC)C(=O)N1CCCC1C=N2 (stereo not drawn) | 0.439 µM | 0.331 µM | 0.215 µM |  | 1.19 µM | GI50 (MALME-3M melanoma): 0.212 µM; GI50 (T-47D breast): 0.0231 µM; GI50 (A498 renal): 0.138 µM; GI50 (PC-3 prostate): 0.0208 µM |
| NC(Cc1ccccc1)c1nn[nH]n1 (stereo not drawn) | > 100 µM | > 100 µM | > 100 µM | > 100 µM | > 100 µM |  |
| O=[N+]([O-])c1ccc(CN=C2NNS(=O)(=O)c3ccccc32)cc1 | > 100 µM | > 100 µM |  | > 100 µM |  | TGI (RXF-631 renal): > 100 µM; TGI (KM20L2 colon): > 100 µM; TGI (DMS 114 small cell lung): > 100 µM; TGI (DLD-1 colon): > 100 µM; TGI (XF 498 CNS): > 100 µM; TGI (M19-MEL melanoma): > 100 µM; TGI (DMS 273 small cell lung): > 100 µM; TGI (SNB-78 CNS): > 100 µM; TGI (LXFL 529 NSCLC): > 100 µM |
| C/C(=N\O)C1CC2C=C(C#N)C1N(Cc1ccccc1)C2 (stereo not drawn) | > 100 µM | > 100 µM | > 100 µM | > 100 µM | > 100 µM |  |
| CC(C)OC(=O)NNc1cccc(Cl)c1 | > 100 µM | > 100 µM | > 100 µM | > 100 µM | > 100 µM |  |
| C=CC(=O)NCNC(=O)C=C | > 100 µM | > 100 µM |  | > 100 µM |  | TGI (KM20L2 colon): > 100 µM; TGI (DMS 114 small cell lung): > 100 µM; TGI (DLD-1 colon): > 100 µM; TGI (XF 498 CNS): > 100 µM; TGI (HOP-18 NSCLC): > 100 µM; TGI (M19-MEL melanoma): > 100 µM; TGI (DMS 273 small cell lung): > 100 µM; TGI (LXFL 529 NSCLC): > 100 µM |
| OCC1OC(n2cnc3c(SCc4ccccc4)ncnc32)C(O)C1O (stereo not drawn) | > 100 µM | > 31.4 µM | > 100 µM | > 100 µM | > 100 µM |  |
| [N-]=[N+]=CC(=O)OCC1NC(=O)C(COC(=O)C=[N+]=[N-])NC1=O (stereo not drawn) | > 100 µM | > 100 µM | > 100 µM | > 100 µM | > 100 µM |  |
| CCP(=O)(CC)C(Cl)(Cl)C(O)C(Cl)(Cl)Cl (stereo not drawn) |  |  | > 100 µM |  | > 100 µM |  |
